Reference: publication PMC4175002, “The Design and Synthesis of Potent and Selective Inhibitors of Trypanosoma brucei Glycogen Synthase Kinase 3 for the Treatment of Human African Trypanosomiasis” (Journal of Medicinal Chemistry, 2014)
One block for each compound: values may come before it.

Key:
HsCDK2/cyclin A = HsCDK2/cyclin A (Homo sapiens, UniProt P24941); test: Radiometric Flashplate potency assay, HsCDK2/cyclin A; type: biochemical; details: for ratio HsCDK2/TbGSK3: ratio of IC50 values; for IC50: average of two or more experiments, 1 μM ATP
Method: (§1) For compound potency determinations, a radiometric 96-well Flashplate assay (PerkinElmer) was adopted. Compounds were solubilized in DMSO at a top concentration of 3 mM and serially diluted to achieve 10-point titration of final assay concentrations from 30 μM to 0.3 nM with a final DMSO concentration of 1% (v/v). The reaction mixtures contained 1 μM biotinylated GSP2 substrate, 1 μM ATP, 3.7 KBq/well [γ-33P]-ATP and 2.5 nM TbGSK3 in the TbGSK3 kinase assay buffer. GSK3 inhibitors were screened for selectivity assessment also against HsGSK3β. For HsGSK3 assay, the reaction mixes contained 1 μM biotinylated GSP2 substrate, 2 μM ATP, 7.4 KBq/well [γ-33P]-ATP and 15 nM HsGSK3β in the TbGSK3 kinase assay buffer (25 mM Tris-HCl, pH 7.5, 10 mM MgCl2, 5 mM DTT, 0.02% CHAPS, 2 U/mL heparin). For HsCDK2/cyclin A assay, the reaction mixtures contained 1 mM CDK5 biotinylated peptide substrate (Biotin-C6-PKTPKKAKKL), 1 μM ATP, 7.4 KBq/well [γ-^33P]-ATP and 2 nM HsCDK2/cyclin A in the kinase assay buffer (50 mM Tris-HCl, pH 7.5, 10 mM MgCl2, 2 mM DTT, 100 mM NaCl, 0.2 mM EGTA, 0.02% (v/v) Brij35).
For the HsCDK2 assay, the analysis was performed using two different standards (GW8510 and staurosporine) tested respectively five times in a single run and 19 times in 2 independent runs. This implies that a difference of >0.3 in pIC50 can be considered statistically significant for this assay.

HsGSK3β = HsGSK3β (Homo sapiens, UniProt P49841); test: Radiometric Flashplate potency assay, HsGSK3β; type: biochemical; details: for ratio HsGSK3β/TbGSK3: ratio of IC50 values
Chain of HsGSK3β (P49841 whole entry): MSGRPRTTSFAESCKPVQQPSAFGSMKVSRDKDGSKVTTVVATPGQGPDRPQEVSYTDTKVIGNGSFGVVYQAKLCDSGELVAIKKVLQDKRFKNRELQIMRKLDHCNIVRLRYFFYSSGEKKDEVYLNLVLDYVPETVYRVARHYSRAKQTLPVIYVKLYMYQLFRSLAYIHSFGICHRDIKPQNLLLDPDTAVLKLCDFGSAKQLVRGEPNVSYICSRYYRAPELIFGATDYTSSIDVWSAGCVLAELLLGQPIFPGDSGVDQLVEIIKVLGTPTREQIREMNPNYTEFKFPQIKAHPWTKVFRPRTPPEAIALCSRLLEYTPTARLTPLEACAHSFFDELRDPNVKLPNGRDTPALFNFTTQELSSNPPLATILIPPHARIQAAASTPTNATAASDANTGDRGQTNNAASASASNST
Method: as §1
This implies that a difference of >0.3 in pIC50 can be considered statistically significant for this assay.

TbGSK3 short = biological target: T1, TbGSK3 short (Trypanosoma brucei brucei, UniProt Q388M1); test: Radiometric 96-well Flashplate potency assay, TbGSK3; type: biochemical; details: for TbGSK3 potency relative to 4f: more potent than the unsubstituted phenyl compound 4f; for decrease in potency against TbGSK3: relative to cyclohexane analogue 9c
T1 sequence (Q388M1 1-352): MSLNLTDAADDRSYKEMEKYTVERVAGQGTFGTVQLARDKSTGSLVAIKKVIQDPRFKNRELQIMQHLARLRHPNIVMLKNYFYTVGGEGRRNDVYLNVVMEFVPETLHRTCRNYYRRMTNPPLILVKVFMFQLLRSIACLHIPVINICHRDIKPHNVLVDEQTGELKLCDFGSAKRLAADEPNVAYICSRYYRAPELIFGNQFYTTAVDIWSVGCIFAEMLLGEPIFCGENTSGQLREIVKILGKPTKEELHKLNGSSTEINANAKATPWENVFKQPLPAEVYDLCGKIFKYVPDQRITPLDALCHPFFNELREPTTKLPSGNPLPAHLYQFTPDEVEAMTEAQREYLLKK
Method: as §1
The statistical significance of the compound potency (IC50) was based on the performance of standard molecules which have been tested to a high replication. In the case of TbGSK3 short assay, the standard compound GW8510 was tested 93 times across 9 independent runs. […] The minimum significant ratio (MSR) of 0.4 was evaluated considering the following formula: [drawing 1] where SD is the standard deviation and N the number of replicate values routinely used for the assay (2 in our case).[31] This implies that a difference of >0.4 in pIC50 can be considered statistically significant for this assay.

[1] = test system: bloodstream form T. b. brucei; test: Trypanosome proliferation assay (resazurin); type: cell-based; details: Trypanosoma brucei, 72 h, concentration required to inhibit growth in culture by 50% over 72 h
Method: (§2) Measurement of inhibition of the proliferation of MRC5 (human lung fibroblast) cells and T. b. brucei bloodstream stage cells was performed using a modification of the cell viability assay previously described.[33] Compounds (50 μM to 0.5 nM) were incubated with 2 × 10^3 cells/well in 0.2 mL of the appropriate culture medium (MEM with 10% fetal bovine serum for MRC5 cells) in clear 96-well plates. Plates were incubated at 37 °C in the presence of 5% CO2 for 69 h. Resazurin was then added to a final concentration of 50 μM, and plates were incubated as above for a further 4 h before being read on a BioTek flx800 fluorescent plate reader.

MRC5 cells = test: MRC5 proliferation assay (resazurin); type: cell-based, human; details: T. b. brucei versus MRC5 EC50
Method: as §2

ratio HsCDK2/TbGSK3 (HsCDK2/cyclin A): <0.7
SMILES: CO[C@H]1CC[C@H](NC(=O)c2n[nH]cc2NC(=O)c2ccccc2F)CC1 [Compound 4g, 4-(2-Fluorobenzamido)-N-(4-methoxycyclohexyl)-1H-pyrazole-3-carboxamide]

ratio HsGSK3β/TbGSK3 (HsGSK3β): <0.72
SMILES: CO[C@H]1CC[C@H](NC(=O)c2n[nH]cc2NC(=O)c2ccccc2C(F)(F)F)CC1 [Compound 4h, N-(4-Methoxycyclohexyl)-4-(2-(trifluoromethyl)benzamido)-1H-pyrazole-3-carboxamide]

TbGSK3 potency relative to 4f (TbGSK3 short): approximately 10 fold | ratio HsGSK3β/TbGSK3 (HsGSK3β): <3.3
SMILES: COc1ccccc1C(=O)Nc1c[nH]nc1C(=O)N[C@H]1CC[C@H](OC)CC1 [Compound 4j, 4-(2-Methoxybenzamido)-N-(4-methoxycyclohexyl)-1H-pyrazole-3-carboxamide]
EC50 [1]: < 1 µM

IC50 (HsCDK2/cyclin A): > 10 µM | ratio HsCDK2/TbGSK3 (HsCDK2/cyclin A): >910
SMILES: CO[C@H]1CC[C@H](NC(=O)c2n[nH]cc2NC(=O)c2ccccc2Nc2ccccc2)CC1 [Compound 4k, N-(4-Methoxycyclohexyl)-4-(2-(phenylamino)benzamido)-1H-pyrazole-3-carboxamide]

IC50 (HsCDK2/cyclin A): > 10 µM | ratio HsCDK2/TbGSK3 (HsCDK2/cyclin A): >150
SMILES: CO[C@H]1CC[C@H](NC(=O)c2n[nH]cc2NC(=O)c2ccccc2Nc2cccc(C)c2C)CC1 [Compound 4l, 4-(2-((2,3-Dimethylphenyl)amino)benzamido)-N-(4-methoxycyclohexyl)-1H-pyrazole-3-carboxamide]

TbGSK3 potency relative to 4f (TbGSK3 short): approximately 10 fold | selectivity over HsCDK2 (HsCDK2/cyclin A; TbGSK3 versus HsCDK2, running text): > 1000 fold | selectivity over HsGSK3 (HsGSK3β; TbGSK3 versus HsGSK3, running text): > 10 fold
SMILES: COc1cc(OC)c(C(=O)Nc2c[nH]nc2C(=O)N[C@H]2CC[C@H](OC)CC2)c(OC)c1 [Compound 4n, N-(4-Methoxycyclohexyl)-4-(2,4,6-trimethoxybenzamido)-1H-pyrazole-3-carboxamide]
selectivity over MRC5 cells (MRC5 cells): > 9 fold

ratio HsGSK3β/TbGSK3 (HsGSK3β): <0.09
SMILES: CO[C@H]1CC[C@H](NC(=O)c2n[nH]cc2NC(=O)c2ccc(F)cc2F)CC1 [Compound 4o, 4-(2,4-Difluorobenzamido)-N-(4-methoxycyclohexyl)-1H-pyrazole-3-carboxamide]

ratio HsGSK3β/TbGSK3 (HsGSK3β): <0.21
SMILES: CO[C@H]1CC[C@H](NC(=O)c2n[nH]cc2NC(=O)c2cc(F)cc(F)c2)CC1 [Compound 4p, 4-(3,5-Difluorobenzamido)-N-(4-methoxycyclohexyl)-1H-pyrazole-3-carboxamide]

ratio HsGSK3β/TbGSK3 (HsGSK3β): <0.08
SMILES: CO[C@H]1CC[C@H](NC(=O)c2n[nH]cc2NC(=O)c2cc(Cl)cc(Cl)c2)CC1 [Compound 4q, 4-(3,5-Dichlorobenzamido)-N-(4-methoxycyclohexyl)-1H-pyrazole-3-carboxamide]

ratio HsGSK3β/TbGSK3 (HsGSK3β): <0.31
SMILES: CO[C@H]1CC[C@H](NC(=O)c2n[nH]cc2NC(=O)c2ccc(OC(F)F)cc2)CC1 [Compound 4r, 4-(4-(Difluoromethoxy)benzamido)-N-(4-methoxycyclohexyl)-1H-pyrazole-3-carboxamide]

ratio HsGSK3β/TbGSK3 (HsGSK3β): <0.26
SMILES: CO[C@H]1CC[C@H](NC(=O)c2n[nH]cc2NC(=O)c2ccc(N3CCCC3)cc2)CC1 [Compound 4s, N-(4-Methoxycyclohexyl)-4-(4-(pyrrolidin-1-yl)benzamido)-1H-pyrazole-3-carboxamide]
selectivity over MRC5 cells (MRC5 cells): > 19 fold

ratio HsGSK3β/TbGSK3 (HsGSK3β): <0.071
SMILES: CO[C@H]1CC[C@H](NC(=O)c2n[nH]cc2NC(=O)c2ccc(N3CCN(C)CC3)cc2)CC1 [Compound 4t, N-(4-Methoxycyclohexyl)-4-(4-(4-methylpiperazin-1-yl)benzamido)-1H-pyrazole-3-carboxamide]

ratio HsGSK3β/TbGSK3 (HsGSK3β): <0.38
SMILES: CO[C@H]1CC[C@H](NC(=O)c2n[nH]cc2NC(=O)c2cc3ccccc3o2)CC1 [Compound 4u, 4-(Benzofuran-2-carboxamido)-N-(4-methoxycyclohexyl)-1H-pyrazole-3-carboxamide]

ratio HsGSK3β/TbGSK3 (HsGSK3β): <0.080
SMILES: CO[C@H]1CC[C@H](NC(=O)c2n[nH]cc2NC(=O)c2cc3ccccn3n2)CC1 [Compound 4v, N-(3-((4-Methoxycyclohexyl)carbamoyl)-1H-pyrazol-4-yl)pyrazolo[1,5-a]pyridine-2-carboxamide]

ratio HsGSK3β/TbGSK3 (HsGSK3β): <0.053
SMILES: CO[C@H]1CC[C@H](NC(=O)c2n[nH]cc2NC(=O)c2cnc3ccccn23)CC1 [Compound 4w, N-(3-((4-Methoxycyclohexyl)carbamoyl)-1H-pyrazol-4-yl)imidazo[1,2-a]pyridine-3-carboxamide]

SMILES: CO[C@H]1CC[C@H](NC(=O)c2n[nH]cc2NC(=O)c2c(C)nc3ccccn23)CC1 [Compound 4x, N-(3-((4-Methoxycyclohexyl)carbamoyl)-1H-pyrazol-4-yl)-2-methylimidazo[1,2-a]pyridine-3-carboxamide]
selectivity over MRC5 cells (MRC5 cells): 12 fold

ratio HsCDK2/TbGSK3 (HsCDK2/cyclin A): >830
SMILES: COc1cccc(OC)c1C(=O)Nc1c[nH]nc1C(=O)NC1CC1 [Compound 9a, N-Cyclopropyl-4-(2,6-dimethoxybenzamido)-1H-pyrazole-3-carboxamide]

SMILES: COc1cccc(OC)c1C(=O)Nc1c[nH]nc1C(=O)NC1CCCCC1 [Compound 9c, N-Cyclohexyl-4-(2,6-dimethoxybenzamido)-1H-pyrazole-3-carboxamide]
selectivity over MRC5 cells (MRC5 cells): > 7 fold

SMILES: COc1cccc(OC)c1C(=O)Nc1c[nH]nc1C(=O)NC1CCCCCC1 [Compound 9d, N-Cycloheptyl-4-(2,6-dimethoxybenzamido)-1H-pyrazole-3-carboxamide]
selectivity over MRC5 cells (MRC5 cells): > 7 fold

decrease in potency against TbGSK3 (TbGSK3 short): 6 fold
SMILES: COc1cccc(OC)c1C(=O)Nc1c[nH]nc1C(=O)Nc1ccccc1 [Compound 9k, 4-(2,6-Dimethoxybenzamido)-N-phenyl-1H-pyrazole-3-carboxamide]

decrease in potency against TbGSK3 (TbGSK3 short): 6 fold
SMILES: COc1cccc(OC)c1C(=O)Nc1c[nH]nc1C(=O)Nc1ccncc1 [Compound 9l, 4-(2,6-Dimethoxybenzamido)-N-(pyridin-4-yl)-1H-pyrazole-3-carboxamide]

loss of activity against TbGSK3 (TbGSK3 short; 2-pyridine analogue much less active, comparator not stated clearly (9c or 9k/9l)): 50 fold
SMILES: COc1cccc(OC)c1C(=O)Nc1c[nH]nc1C(=O)Nc1ccccn1 [Compound 9m, 4-(2,6-Dimethoxybenzamido)-N-(pyridin-2-yl)-1H-pyrazole-3-carboxamide]

ratio HsGSK3β/TbGSK3 (HsGSK3β): 100
SMILES: CCCCCNC(=O)c1n[nH]cc1NC(=O)c1c(OC)cccc1OC [Compound 9s, 4-(2,6-Dimethoxybenzamido)-N-pentyl-1H-pyrazole-3-carboxamide]
selectivity over MRC5 cells (MRC5 cells): > 7 fold

SMILES: COc1cccc(OC)c1C(=O)Nc1c[nH]nc1C(=O)NCCCOC(C)C [Compound 9t, 4-(2,6-Dimethoxybenzamido)-N-(3-isopropoxypropyl)-1H-pyrazole-3-carboxamide]
selectivity over MRC5 cells (MRC5 cells): > 7 fold

ratio HsGSK3β/TbGSK3 (HsGSK3β): <2.5
SMILES: COc1cccc(OC)c1C(=O)Nc1c[nH]nc1C(=O)N[C@H]1CC[C@H](OC)CC1 [Compound 9x]

average pIC50 TbGSK3 short assay (TbGSK3 short; standard compound tested 93 times across 9 independent runs, SD 0.23): 8.26 | average pIC50 HsGSK3 assay (HsGSK3β; standard compound tested 47 times across 5 independent runs, SD 0.21): 8.10
SMILES: O=C1Nc2ccc3ncsc3c2/C1=C/Nc1ccc(S(=O)(=O)Nc2ccccn2)cc1 [GW8510, reference compound]
